Reference: US20250204515A1, “Heparanase Inhibition for Graft Protection” (University of Pittsburgh - Of the Commonwealth System of …, priority 2022, published 2025)

What was measured:
heparanase (HPSE) = test: In vitro β-D-glucuronidase activity assay (4-MUG substrate); settings: in vitro, FIG. 8
Experimental: In vitro β-D-glucuronidase activity assay Heparanase activity was measured via β-Glucuronidase activity assay using 4-methylumbelliferyl-β-D-glucuronide (4-MUG) substrate (Millipore-Sigma). As a source of enzymes, platelet rich plasma (PRP) obtained from rat whole blood or rat lung whole tissue lysate, was used. […] Fluorescence (λex 360 nm/λem 460 nm) was continuously measured for 60 minutes using a fluorescence microplate reader (BioTech Synergy HTX, Agilent Technologies, Santa Clara, CA).

[1] = test system: glycosaminoglycans (GAGs), syndecan-1; test: Glycocalyx shedding in rat lungs during EVLP (GAGs, syndecan-1 ELISA, immunofluorescence)
Experimental: Syndecan-1 ELISA: Syndecan-1 concentrations in EVLP perfusate were quantitated using ELISA (Immunotag™ Rat Syndecan-1 ELISA, G-Biosciences, Geno Technology, Inc., St. Louis, MO). ELISA was performed according to the manufacturer's instructions using perfusate samples acquired after 4 hours of EVLP.
Determination of glycosaminoglycans (GAGS): The concentration of GAGs in rat EVLP perfusate at 4 hours was quantitated using 1,9-dimethylmethylene blue (DMMB, Millipore Sigma). The DMMB solution (pH˜3.0) was prepared by dissolving 16 mg/I DMMB in distilled H2O containing 3.04 g/I glycine, 1.6 g/l NaCl and 95 ml 0.1 M acetic acid. Briefly, 1 ml DMMB solution was mixed with 100 μl EVLP perfusate then incubated for 18 h at room temperature. The tubes were then centrifuged at 14,000 rpm for 20 min at 4° C. Supernatants were carefully decanted, 100 μl dissolvent buffer (4 M guanidine hydrochloride, 50 mM sodium acetate, 10% propan-1-ol, pH 6.8) was added to each pellet, and the tubes were incubated at 40° C. and vortexed until GAG-DMMB pellets were completely dissolved. GAG content in each sample was measured spectrophotometrically at 656 nm.
(§1) Tissue staining and histopathological analysis: Formalin-fixed, paraffin-embedded lung tissues collected 2 hours after transplantation were sectioned to 4 μm thickness and stained with hematoxylin and eosin. In parallel, sections of tissue collected after 4 hours of EVLP were stained for immunofluorescence imaging using primary antibodies for syndecan-1 (DL-101) (#sc-12765, Santa Cruz) and caveolin-1 (#3238, Cell Signaling Technology, Danvers, MA) and with Hoechst 33342 dye (Thermo Scientific). Donkey Cy3-conjugated anti-mouse IgG (#AP192C, MilliporeSigma, Burlington, MA) and Cy5-conjugated goat anti-rabbit IgG (#A10523, Thermo Scientific) secondary antibodies were used to detect primary antibodies. Stained slides were scanned with a whole-slide image scanner (Axio Scan.Z1; Carl Zeiss AB, Oberkochen, Germany) and analyzed with digital image processing software (ZEN lite blue edition; Carl Zeiss).

[2] = test system: HPSE1, MMP2, IL-6, IL-1β, TNF-α mRNA; IκB-α; test: Real-time RT-PCR and western blotting in rat lung tissue after 4 hours of EVLP
Experimental: (§2) Graft tissues collected after 4 hours of EVLP and 2 hours after reperfusion were examined for relative mRNA expression levels of interleukin (IL)-6, IL-1, tumor necrosis factor (TNF)-α, and glyceraldehyde-3-phosphate dehydrogenase (GAPDH). Gene expression levels were normalized to GAPDH mRNA levels.
Western blotting: Total isolated proteins were extracted/resolved by 10% SDS-PAGE followed by transfer to 0.2 μm nitrocellulose membranes (Bio-Rad Laboratories, Hercules, CA, USA). Membranes were blocked with 5% non-fat milk at room temperature for 2 hours and then incubated overnight at 4° C. with the following primary antibodies: inhibitor of KB-α (IκB-α; #9242, Cell Signaling Technology, Inc., Danvers, MA) and β-actin (#A1978, Millipore-Sigma). Membranes were then incubated with either goat anti-mouse IgG (H+L) (#31430, Thermo Fisher Scientific Inc.; 1:5000) or goat anti-rabbit IgG (H+L) (#31460, Thermo Fisher Scientific Inc.; 1:3000) horseradish peroxidase-conjugated polyclonal secondary antibodies at room temperature for 2 hours. Proteins were visualized using an enhanced chemiluminescence kit (Abcam), and protein bands were imaged and analyzed using Image Lab software (Version 6.0; Bio-Rad Laboratories, Inc., Hercules, CA). The intensities of protein bands were quantitated by Image J software (National Institutes of Health, Bethesda, MD).

rat lung grafts = test: Rat orthotopic left lung transplantation following EVLP; assay type: in vivo
Experimental: Rat orthotopic left lung transplantation following EVLP: Orthotopic, single-lung transplantation of the left lung was performed using the 3-cuff method. After EVLP for 4 hours, the lungs were cooled with 4° C. Perfadex on the EVLP system and stored at 4° C. for 1 hour prior to transplantation. The recipient animals were sacrificed 2 hours after reperfusion. When analyzing graft function, the native lung was clamped, 100% 02 was administered for 5 minutes through a ventilator, and the recipient's blood was sampled from the graft pulmonary vein for blood gas analysis.
as §2, §1

rat lungs = test: Rat EVLP for 4 hours with HPSE inhibitors in the perfusate: physiology, endothelial barrier, edema; settings: heparin 1000-U/hour or SF4 1 μM in perfusate
Experimental: In the heparin group, 1000-U of heparin were initially added to the EVLP perfusate, then 1000-U of heparin were administered every hour during EVLP. […] Two control conditions were included in the experimental protocol: 1) sham controls (Sham) were lungs not placed on EVLP and 2) untreated controls (Control) were lungs placed on EVLP without HPSE inhibitor treatment. EVLP physiology, endothelial integrity, inflammation and glycocalyx preservation for EVLP lungs and post-transplant lung grafts were investigated across all treatment regimens.
Ex vivo lung perfusion in rats: EVLP was performed using a commercially-available rodent EVLP system (IL-2 Isolated Perfused Rat or Guinea Pig Lung System; Harvard apparatus, Holliston, MA). Acellular Steen solution was used for EVLP perfusate and medicated with methylprednisolone (Solu-Medrol®; Pfizer, Inc., New York, NY) and cephalosporin (Cefazolin; WG critical care LLC, Paramus, NJ) equally in all experimental groups. […] Pulmonary artery pressure, peak airway pressure, and airway flow were monitored continuously, and dynamic lung compliance (Cdyn) and pulmonary vascular resistance (PVR) were analyzed.
Evaluation of endothellal barrier Integrity After 4 hours of EVLP, 60 mg of Evans blue dye (EBD, Millipore-Sigma, Burlington, MA) was administered into the perfusate to assess vascular endothelial permeability. After 30 minutes of perfusion, the lung vascular bed was rinsed with 20 ml of phosphate-buffered saline (PBS), and slices of lungs were incubated in formamide (Millipore Sigma) overnight at 60° C. Absorbance of the extractant was measured at 620 nm, and EBD was normalized to dry-tissue weight.
Wet-to-Dry (W/D) weight ratio: Lung tissues collected 2 hours after transplant were immediately weighed then placed in a 60° C. oven to dry for 72 hours. Tissues were weighed again after drying to determine the wet-to-dry lung weight ratio.

[3] = test system: human lung microvascular endothelial cells (HLMVECs); test: In-vitro cellular toxicity test for HPSE inhibitor candidates; settings: HLMVECs, 24 hours
Experimental: In-vitro cellular toxicity test for HPSE Inhibitor candidates: Human lung microvascular endothelial cells (HLMVECs) were obtained from the American Type Culture Collection (Rockville, MD, USA). Cells were cultured in a humidified incubator at 37° C. and 5% CO2 and grown in endothelial growth medium (EGM™-2 Endothelial Cell Growth Medium-2, Lonza, Basel, Switzerland) supplemented with 2% heat-inactivated fetal bovine serum and 0.04% hydrocortisone. Cell media was replaced every 48 hours, and the cells were split upon 80-90% confluence.
Final tested concentrations of HPSE inhibitors were calculated based upon repeatable in vitro dose-response studies. After 24 hours incubation, cell viability was confirmed by Trypan blue exclusion assay. Total mRNA was isolated using Trizol (Thermo Fisher Scientific Inc., Waltham, MA) and relative messenger RNA (mRNA) expression levels of hemeoxygenase-1 (HO-1), interleukin (IL)-6, tumor necrosis factor (TNF)-α, monocyte chemoattractant protein (MCP)-1, B-cell lymphoma 2 Associated X (Bax), B-cell lymphoma 2 (Bcl-2), B-cell lymphoma-extra-large (Bcl-xL) were quantified by SYBR Green 2-step, real-time, reverse transcription-polymerase chain reaction (RT-PCR). Relative gene expression levels were normalized to mRNA expression of glyceraldehyde-3-phosphate dehydrogenase (GAPDH) and compared to relative mRNA expression levels in control-treated HLMVEC.

[4] = 2 hours after transplant, vs untreated control and heparin-pretreated lungs
[5] = 100 nM SF4, 250 mM amodiaquine, 250 mM triazolothiadiazoles

Row | Structure (SMILES) | β-D-glucuronidase activity, dose response (heparanase (HPSE)) | syndecan-1 immunofluorescent staining of lung endothelial lumen ([1]; after 4-hours EVLP, vs controls and heparin-treated) | syndecan-1 concentration in EVLP perfusate ([1]; after 4 hours EVLP, SF4 vs heparin-treated, heparin vs controls) | GAGs content in EVLP perfusate ([1]; at 4-hours EVLP, vs controls) | IL-1β mRNA expression ([2]; lung tissue after 4-hours EVLP) | IL-6 mRNA expression ([2]; lung tissue after 4-hours EVLP) | TNF-α mRNA expression ([2]; lung tissue after 4-hours EVLP) | IκB-α expression (western blot) ([2]; lung tissue after 4-hours EVLP, vs control and heparin groups) | HPSE1 mRNA expression ([2]; lung tissue after 4 hours of EVLP, vs sham) | H&E histology of grafts (rat lung grafts; 2 hours after transplant following 4 hours of EVLP) | IL-1β mRNA expression (rat lung grafts; [4]) | IL-6 mRNA expression (rat lung grafts; [4]) | TNF-α mRNA expression (rat lung grafts; [4]) | dynamic lung compliance (Cdyn) during EVLP (rat lungs; 4-hour EVLP, vs control) | Evans blue dye (EBD) accumulation in lung tissue (rat lungs; after 4-hours EVLP) | Relative mRNA expression (compared to control) Bax ([3]; 100 nM SF4) | Relative mRNA expression (compared to control) Bcl-xl [3, 5] | Relative mRNA expression (compared to control) HO-1 [3, 5] | Relative mRNA expression (compared to control) IL6 [3, 5] | Relative mRNA expression (compared to control) MCP1 [3, 5]
1 | O=C(O)Cc1ccc2oc(-c3ccc(NC(=O)/C=C/c4ccc(Br)cc4)c(F)c3)nc2c1 [OGT-2113] | dose-dependent |  |  |  |  |  |  |  |  |  |  |  |  |  |  |  |  |  |  | 
2 | Cl.O=C(O)[C@H]1CN[C@H](NC(=O)C(F)(F)F)[C@@H](O)[C@H]1O [SF4, (3S,4S,5R,6R)-4,5-dihydroxy-6-[(2,2,2-trifluoroacetyl)amino]piperidine-3-carboxylic acid] |  | significantly increased staining | significantly lower | significantly reduced | significantly downregulated | significantly downregulated | significantly downregulated | significantly stabilized | not altered | reduced swollen alveolar walls, congestion in the blood vessels, and fluid leaks | significantly lower | significantly lower | significantly lower | neither heparin nor SF4 altered Cdyn | markedly decreased |  |  |  |  | 
3 | CCN(CC)Cc1cc(Nc2ccnc3cc(Cl)ccc23)ccc1O [Amodiaquine, amodiaquine] | dose-dependent |  |  |  |  |  |  |  |  |  |  |  |  |  |  | 0.71 | 1.30 | 2.94 | 13.55 | 3.45
